According to patent publication US8389739B1, “Modulators of retinoid-related orphan receptor gamma” (Orphagen Pharmaceuticals, priority 2006, dated 2013):
“Also recorded” adds a separate entry of the source.

What was measured:
[1] = system: liver triglycerides; experiment: Liver triglycerides after oral dosing in C57BL/6 mice; type: in vivo
Protocol: […] A small piece of the liver (˜200 mg) was weighed and extracted to determine triglyceride content. Glycerol was liberated from liver triglycerides by hydrolysis in base. The liver fragment was incubated overnight at 55° C. in 0.35 mls of ethanolic KOH (2 parts EtOH: 1 part 30% KOH) in a closed tube. A solution of 50% ethanol in water was added to bring the volume of each tube to 1.0 ml. The solution was cleared of debris by centrifugation, and the resulting supernatant increased to 1.2 ml with further addition of 50% ethanol. Aqueous 1 M MgCl2 (215 μl) was added to 200 μl of the supernatant, and the mixture was cleared by centrifugation again after standing 10 min on ice. Glycerol levels were measured with the Sigma Free Glycerol Reagent (Sigma-Aldrich, St. Louis, Mo.) according to the manufacturer's instructions. The triglyceride concentration (in milligrams per gram of liver wet weight) was determined by assuming average molecular weight of 1000 daltons for each molecule of triglyceride.

[2] = system: thymocytes; experiment: Thymus weight and thymocyte subpopulations after oral dosing in C57BL/6 mice; type: in vivo; details: mouse, in vivo, 100 mg/kg
Protocol: In addition, the total number and the fraction of the major thymocyte subpopulations including CD4^+CD8^+ (DP), CD4^+CD8^- (SP4^+) and CD4^-CD8^+ (SP8^+) were measured by cell surface staining followed by FACS analysis. […] The volume of cells was adjusted to 8 mls. Debris from the thymus was allowed to settle, and a 200 μl aliquot of cells was incubated with fluorescent antibodies to CD4 and CD8 for 15 minutes at room temperature. […] Before analytical flow cytometry was carried out (FACS Calibur, Becton Dickinson), Caltag counting beads (from Invitrogen) were added to allow absolute quantitation of cell number. Thymus subpopulations were determined after gating for live cells. […] Dexamethasone reproducibly induces rapid apoptosis of DP thymocytes and reduction of thymic mass ([…], Drupt et al. 2000; Zubkova, Mostowski et al. 2005).

[3] = system: EAE; experiment: EAE model, C57BL/6 mice immunized with MOG35-55; type: in vivo; details: for median day of onset of symptoms (clinical score 1 or greater): oral gavage twice a day, corn oil vehicle day 18
[4] = system: EAE; experiment: EAE model, SJL/J mice immunized with PLP139-151, osmotic pump; type: in vivo
[5] = system: TH-17 cells; experiment: TH-17 cell frequency in lymph nodes of PLP-immunized SJL/J mice; type: in vivo; details: 100 mg/kg OR-1050 in HRC-6 daily, day 9 after PLP immunization; fraction of total CD4+ cells
Protocol: FIGS. 11D-F SJL/J mice were immunized with 75 μg PLP139-151 (Day 0). Osmotic pumps delivering vehicle or OR-1050 ([…]) were inserted at Days 3 and 4. Day of onset (FIG. 11E) compares the first day when EAE severity is 1 or higher. The ratio of Th-17 cells (CD4^+CD8^−IL17^+) to […] was analyzed in a separate study (F FIG. 11F) at day 9 after immunization with PLP where mice had been dosed daily with OR-1050 (100 mg/kg in HRC-6) since […]. Statistics (panels A, B, D, F) were performed by Student's t-test. *, P<0.05; #, P<0.01 (mean±sem, n=7-10) or by the Mann-Whitney rank order test (FIGS. 11C, E, median values shown).
Since OR-1050 inhibits TH-17 cells in ex vivo culture, we also investigated whether TH-17 cell frequency was affected in OR-1050-treated animals. SJL/J female mice (n=9/group) were treated with 100 mg/kg OR-1050 in HRC-6 beginning two days before immunization with PLP (as described above) and continuing until 8 days after immunization. Animals were sacrificed on day 9, and TH-17 cells analyzed from pooled axillary, brachial, and inguinal lymph nodes from each animal. We found a 35% reduction in TH-17 frequency in lymph nodes of SJL/J mice (FIG. 11F) as a fraction of the total CD4^+ cell population. The change in TH-17 frequency with OR-1050 treatment was statistically significant.

[6] = system: splenic TH-17 and TH1 cells; experiment: Splenic TH-17 and TH1 cells in MOG-immunized C57BL/6 mice; type: in vivo; details: 100 mg/kg oral gavage for 9 days
Protocol: C57BL/6 female mice were immunized with 150 μg […] on study day 0. Mice were treated with either OR-1050 at 100 mg/kg or with vehicle (HRC-6) by oral gavage for 9 days starting day O, Splenocytes were collected at Day 9 and stained for TH-17 (CD4^+CD8^−IL17^+) and TH1 (CD4^+CD8^−IFNγ^+) cells. Statistics were performed by Student's t-test.

[7] = system: CIA; experiment: Collagen-induced arthritis (CIA) in DBA/1 mice; type: in vivo; details: 100 mg/kg/day OR-1050 p.o. in HRC-6; AUC day 24 to 48, p<0.09
[8] = system: EAE; details: mouse, in vivo; cited from earlier work

| Liver triglycerides ([1]; OR-1050 100 mg/kg (50 mg/kg twice per day by gavage, corn oil) for 7 days, vehicle 34.7 ± 5.7) | liver triglycerides, in words ([1]; daily exposure to 100 mg/kg OR-1050, six day study) | Frequency of DP (% of total cells) [2] | Total cells per spleen (×10^−6) DP [2] | Total cells per spleen (×10^−6) SP4 [2] | Total cells per spleen (×10^−6) SP8 [2] | SMILES | median day of onset of symptoms (clinical score 1 or greater) ([3]; 30 mg/kg total daily dose) | onset of EAE, in words ([3]; 100 mg/kg OR-1050 per day versus vehicle) | median day of onset of symptoms (clinical score 1 or greater) ([3]; 100 mg/kg total daily dose, p<0.05) | progress of disease and weight loss, in words ([3]; high dose (50 mg/kg, 2× per day), FIG. 11A, 11B) | inflammatory infiltration in the spinal cord ([3]; high dose, FIG. 11C, p<0.07, Mann-Whitney) | paralytic severity, in words ([4]; FIG. 11D) | day of onset, in words ([4]; FIG. 11E) | area under the severity curve (mean±sem) ([4]; estimated 30 mg/kg daily, vehicle 14.5±1.6, p<0.01) | reduction in TH-17 frequency in lymph nodes [5] | change in TH1 cells [6] | inhibition of splenic TH-17 cells ([6]; HRC-6, p<0.05, n=8-10) | disease course of CIA (hind limb clinical scores) [7] | development of murine EAE [8] |
| --- | --- | --- | --- | --- | --- | --- | --- | --- | --- | --- | --- | --- | --- | --- | --- | --- | --- | --- | --- |
| 119.5 ± 18.8 mg/g | markedly elevated | 56.7 ± 3.1% | 61.5 ×10^−6 | 8.1 ×10^−6 | 2.5 ×10^−6 | CCN(c1ccc(C(O)(C(F)(F)F)C(F)(F)F)cc1)S(=O)(=O)c1ccc([N+](=O)[O-])cc1 [OR-1050, N-Ethyl-4-nitro-N-[4-(2,2,2-trifluoro-1-hydroxy-1-trifluoromethyl-ethyl)-phenyl]-benzenesulfonamide] | 16 days | slows the onset of EAE; also recorded: significantly (p<0.05) delayed | 26 days | inhibits progress of the disease and weight loss | reduced | reduced paralytic severity | significantly delayed | 5.3±2.7 | 35% | no change in TH1 cells | 29% | partly suppressed |  |
|  |  |  |  |  |  | O=S(=O)(c1ccccc1)N(CC(F)(F)F)c1ccc(C(O)(C(F)(F)F)C(F)(F)F)cc1 [Compound T0901317, N-(2,2,2-Trifluoro-ethyl)-N-[4-(2,2,2-trifluoro-1-hydroxy-1-trifluoromethyl-ethyl)-phenyl]-benzenesulfonamide, reference compound] |  |  |  |  |  |  |  |  |  |  |  |  | inhibit the development of murine EAE |
